Results as given in patent publication US20220088275A1, “HYDROGELS, METHODS OF MAKING, AND METHODS OF USE” (Convalesce Inc., priority 2019, published 2022).
Peptide text beside a SMILES is read from it.

Columns and labels:
SHSY5Y cells = experiment: in vitro; type: cell-based; details: incubated for 24 hours; FIG. 10
Procedure: (§1) To determine the viability of cells within the hydrogels formed by L1 and L3, a Calcein-AM based toxicity assay was carried out. SHSY5Y cells were used for the toxicity assay. Cells were cultured in complete DMEM with 10% FBS, 1× Glutamax and 1% pen-strep antibiotic cocktail in a humidified incubator at 37° C. with 5% CO2. Cells cultured at 80% confluency in the culture vessel were used for the assay. SHSY5Y cells were washed with phosphate-buffered saline and treated with Accutase® to lift them of the culture vessel. Subsequently, it was neutralized with a double amount of complete media and centrifuged at 300 rpm for 5 minutes to obtain a cell pellet. Around 10,000 live cells (counted on a hemocytometer by Trypan blue exclusion) were added to 20 μL of each hydrogel and plated in a well of a 96 well polystyrene TC plate (with technical replicate=3). After 20 minutes, 100 μL complete media was added to each well. For control, a similar number of cells were added to a well without the hydrogel. 20 μL of phosphate buffer was added to each of the control wells. Cells were cultured for 24 hours before performing the Calcein-AM assay. Calcein-AM assay was carried out according to manufacturer's protocol. The viable cells were imaged with a wide-field fluorescence microscope and quantified.

in vitro = type: cell-based; details: human
Procedure: as §1

[1] = Hydrogel formation from laminin derived peptides; type: physicochemical; details: 1 mg peptide in 200 μL 20 mM phosphate buffer pH 7.4, NaCl 50 mM to 150 mM, 24 hours
Procedure: As an example of hydrogels based on self-aggregating peptides derived from non-amyloid proteins, laminin hydrogels were generated. Laminin was analyzed in silico to identify self-aggregating regions. After identification of such a region in the protein, its sequence was further modified to facilitate peptide self-assembly, and subsequently cross-beta sheet formation. Three peptides, L1-L3, were designed. The peptides were synthesized by a commercial vendor with 99% purity.
For forming the hydrogels, 1 mg peptide was mixed with 180 μL of 20 mM phosphate buffer, pH 7.4. The pH of this solution was raised to 10 by the gradual addition of 2N NaOH. NaCl was added to this solution in different quantities with a range from 50 mM to 150 mM final concentration. The pH of the solution was finally adjusted to 7.4 and the final volume of the solution was 200 μL. The solution was left undisturbed for 24 hours to facilitate the hydrogel formation.

In the case of `CC(C)C[C@H](NC(=O)[C@H](Cc1ccc(O)cc1)NC(=O)[C@H](Cc1ccccc1)NC(=O)[C@H](CC(C)C)NC(=O)[C@H](CC(C)C)NC(=O)OCC1c2ccccc2-c2ccccc21)C(=O)O` [L1] (HELM PEPTIDE1{[O=C(OCC1c2ccccc2-c2ccccc21)[*:2]].L.L.F.Y.L}$$$$V2.0; C-terminus assumed), the “viability of SHSY5Y cells relative to control (in words)” value (SHSY5Y cells) is reported as “high viability”, the viability at 24 h (in vitro) is reported as 85% and the hydrogel formation [1] is reported as “formed hydrogels”.

For `CC(C)C[C@H](NC(=O)[C@H](Cc1ccc(O)cc1)NC(=O)[C@@H](NC(=O)[C@H](CC(C)C)NC(=O)[C@H](CC(C)C)NC(=O)OCC1c2ccccc2-c2ccccc21)C(C)C)C(=O)O` [L3] (HELM PEPTIDE1{[O=C(OCC1c2ccccc2-c2ccccc21)[*:2]].L.L.V.Y.L}$$$$V2.0; C-terminus assumed), the “viability of SHSY5Y cells relative to control (in words)” value (SHSY5Y cells) was “high viability”, the viability at 24 h (in vitro) was 87% and the hydrogel formation [1] was “formed hydrogels”.
